Structures are written as SMILES. “Also recorded” adds a separate entry of the source.

The subject of one experiment is AGEs in human DMM. Description: Reduction of AGEs in human decellularized muscle matrix (DMM) from MTF Biologics. It is filed as biochemical. The note with it: older human samples, 10 mM ALT-711, 37° C., 5 days. The method, then: Exemplary method for reducing AGEs in decellularized muscle xi. 10 mM ALT-711 is added to each well, and then placed in the 37° C. incubator for 5 days.
xii. After 5 days, the samples are washed 3 times with diH20 each, and then the samples are frozen at −80° C.
In addition, human decellularized muscle from MTF Biologics was also tested for feasibility to reduce AGEs in older human samples using the same protocol as described above.

The subject of experiment [1] is AGEs in decellularized muscle matrix (DMM). In words: Reduction of AGEs in decellularized mouse gastrocnemius muscle matrix (DMM). The note with it: C57BL6 mouse gastrocnemius, 2-month vs 20-month; 10 mM ALT-711, 37° C., 5 days; FIG. 3. It is filed as biochemical. The protocol: • i. Gastrocnemius is thawed in a 37° C. water bath and then butterflied. • ii. The muscles are washed in a T-25 flask (standing vertical) with 20 ml of deionized water per well 3 times for 10 minutes each. • iii. Tissue is then treated with 20 ml of 0.25% Trypsin for 12-16 hours in a T-25 flask (standing vertical) on an orbital shaker plate. Use tape to secure the flask in a vertical position. • iv. Trypsin treatment is followed by 3 20 ml 15 minute deionized water washes per well. • v. Tissue is treated with 20 mL of 0.1% TRITON X-100™ in a T-25 flask for 8 hours at 4° C. The volume is replaced with fresh TRITON X-100™ and the tissue is treated for another 16 hours. Treatment is followed by 3 20 ml 15 minute deionized water washes per well. • vi. Samples are placed in 20 mL of 60 mM sodium deoxycholate with 0.6 mM SB-16 for 8 hours in a T-25 flask at 4° C. The volume is replaced with fresh sodium deoxycholate and SB-16 and the tissue is treated for another 16 hours. • vii. Samples are washed as described in deionized water and placed in 20 mL of 70 mM CHAPS for 8 hours in a T-25 mL flask at 4° C. The volume is replaced with fresh CHAPS and the tissue is treated for another 16 hours. • viii. […]

For `Cc1sc[n+](CC(=O)c2ccccc2)c1C.[Cl-]` [ALT-711, alargebrium chloride 711], in the experiment with AGEs in human DMM (FIG. 4A), the “AGEs normalized to protein” value is listed as “reduced AGEs”. In the experiment on AGEs in human DMM (FIG. 4B), the “AGEs normalized to hydroxyproline” value is on record as “reduced AGEs”. Further, the “level of AGEs in decellularized muscle matrix (DMM)” value in experiment [1] is listed as “reduced levels of AGEs; also recorded: reduces the higher level of AGEs seen in the 20-month decellularized muscle matrix (DMM) to young adult levels”.

Values taken from patent US20250034413A1, “METHODS FOR DECELLULARIZING ANIMAL TISSUE AND BIOINKS DERIVED THEREFROM” (VIRGINIA COMMONWEALTH UNIVERSITY, priority 2021, published 2025).
